Results as given in patent US20230093099A1, “COMPOUNDS AND METHODS OF TREATING CANCERS” (CULLGEN (SHANGHAI), INC., priority 2019, published 2023).
pIC50: −log10 of the molar value.

Tested on: RS4;11 cells
Assay: Cell viability assay (CellTiter-Glo) in RS4;11 cells
Assay type: cell-based
Conditions: Homo sapiens, 72 h; RS4;11 ALL cells treated for three days; read-out: cell viability inhibition IC50
Summary of the method: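 RS4;11 cells seeded at 5000 per well, exposed for 3 days to 8- or 12-point 3-fold serial dilutions. Viability read by CellTiter-Glo luminescence; IC50 fitted by nonlinear least-squares regression.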

For `Cc1cnc(Nc2ccc(N3CCN(CC(=O)NCCCCCCNc4cccc5c4C(=O)N(C4CCC(=O)NC4=O)C5=O)CC3)cc2)nc1Nc1cccc(S(=O)(=O)NC(C)(C)C)c1` (stereo not shown) [JA-094, 2-(4-(4-((4-((3-(N-(tert-butyl)sulfamoyl)phenyl)amino)-5-methylpyrimidin-2-yl)amino)phenyl)piperazin-1-yl)-N-(6-((2-(2,6-dioxopiperidin-3-yl)-1,3-dioxoisoindolin-4-yl)amino)hexyl)acetamide], the pIC50 was greater than 7.00.

Same assay, conditions: Homo sapiens, 72 h; RS4;11 cells; cell viability, 3 days, CellTiter-Glo; read-out: IC50

Going from `Cc1ncsc1-c1ccc(CNC(=O)[C@@H]2C[C@@H](O)CN2C(=O)[C@@H](NC(=O)CCOCCC(=O)N2CCC(n3cc(-c4cnc5cccc(-c6cc(F)c(CN7CCOCC7)c(F)c6)c5n4)cn3)CC2)C(C)(C)C)cc1` [JA-058, (2S,4R)-1-[(2S)-2-[3-[3-[4-[4-[8-[3,5-Difluoro-4-(morpholinomethyl)phenyl]quinoxalin-2-yl]pyrazol-1-yl]-1-piperidyl]-3-oxo-propoxy]propanoylamino]-3,3-dimethyl-butanoyl]-4-hydroxy-N-[[4-(4-methylthiazol-5-yl)phenyl]methyl]pyrrolidine-2-carboxamide] to `Cc1ncsc1-c1ccc(CNC(=O)[C@@H]2C[C@@H](O)CN2C(=O)[C@@H](NC(=O)CCCCC(=O)N2CCC(n3cc(-c4cnc5cccc(-c6cc(F)c(CN7CCOCC7)c(F)c6)c5n4)cn3)CC2)C(C)(C)C)cc1` [JA-041, (2S,4R)-1-[(2S)-2-[[6-[4-[4-[8-[3,5-Difluoro-4-(morpholinomethyl)phenyl]quinoxalin-2-yl]pyrazol-1-yl]-1-piperidyl]-6-oxo-hexanoyl]amino]-3,3-dimethyl-butanoyl]-4-hydroxy-N-[[4-(4-methylthiazol-5-yl)phenyl]methyl]pyrrolidine-2-carboxamide], the pIC50 falls from 5.60 to less than 5.00. The first is the more potent here.

Compared with `Cc1cnc(Nc2ccc(N3CCN(CC(=O)NCCOCC(=O)N[C@H](C(=O)N4C[C@H](O)C[C@H]4C(=O)NCc4ccc(-c5scnc5C)cc4)C(C)(C)C)CC3)cc2)nc1Nc1cccc(S(=O)(=O)NC(C)(C)C)c1` [JA-217, (2S,4R)-1-((S)-2-(2-(2-(2-(4-(4-((4-((3-(N-(tert-butyl)sulfamoyl)phenyl)amino)-5-methylpyrimidin-2-yl)amino)phenyl)piperazin-1-yl)acetamido)ethoxy)acetamido)-3,3-dimethylbutanoyl)-4-hydroxy-N-(4-(4-methylthiazol-5-yl)benzyl)pyrrolidine-2-carboxamide], `Cc1cnc(Nc2ccc(N3CCN(C(=O)CCOCCC(=O)N[C@H](C(=O)N4C[C@H](O)C[C@H]4C(=O)NCc4ccc(-c5scnc5C)cc4)C(C)(C)C)CC3)cc2)nc1Nc1cccc(S(=O)(=O)NC(C)(C)C)c1` [JA-031, (2S,4R)-1-((S)-2-(3-(3-(4-(4-((4-((3-(N-(tert-Butyl)sulfamoyl)phenyl)amino)-5-methylpyrimidin-2-yl)amino)phenyl)piperazin-1-yl)-3-oxopropoxy)propanamido)-3,3-dimethylbutanoyl)-4-hydroxy-N-(4-(4-methylthiazol-5-yl)benzyl)pyrrolidine-2-carboxamide] is lower in pIC50: 5.25 for the first, less than 5.00 for the second.

Going from `Cc1ncsc1-c1ccc(CNC(=O)[C@@H]2C[C@@H](O)CN2C(=O)[C@@H](NC(=O)CCCCCCCCCCNC(=O)CN2CCC(n3cc(-c4cnc5cccc(-c6cc(F)c(CN7CCOCC7)c(F)c6)c5n4)cn3)CC2)C(C)(C)C)cc1` [JA-150, (2S,4R)-1-((S)-2-(11-(2-(4-(4-(8-(3,5-Difluoro-4-(morpholinomethyl)phenyl)quinoxalin-2-yl)-1H-pyrazol-1-yl)piperidin-1-yl)acetamido)undecanamido)-3,3-dimethylbutanoyl)-4-hydroxy-N-(4-(4-methylthiazol-5-yl)benzyl)pyrrolidine-2-carboxamide] to `O=C1CCC(N2C(=O)c3cccc(NCCCCCCC(=O)N4CCC(n5cc(-c6cnc7cccc(-c8cc(F)c(CN9CCOCC9)c(F)c8)c7n6)cn5)CC4)c3C2=O)C(=O)N1` (stereo not shown) [JA-040, 4-[[7-[4-[4-[8-[3,5-Difluoro-4-(morpholinomethyl)phenyl]quinoxalin-2-yl]pyrazol-1-yl]-1-piperidyl]-7-oxo-heptyl]amino]-2-(2,6-dioxo-3-piperidyl)isoindoline-1,3-dione], the pIC50 falls from 5.65 to less than 5.00. The first is the more potent here.

`Cc1cnc(Nc2ccc(N3CCN(C(=O)CNc4cccc5c4C(=O)N(C4CCC(=O)NC4=O)C5=O)CC3)cc2)nc1Nc1cccc(S(=O)(=O)NC(C)(C)C)c1` (stereo not shown) [JA-006, N-(tert-Butyl)-3-((2-((4-(4-((2-(2,6-dioxopiperidin-3-yl)-1,3-dioxoisoindolin-4-yl)glycyl)piperazin-1-yl)phenyl)amino)-5-methylpyrimidin-4-yl)amino)benzenesulfonamide] and `Cc1cnc(Nc2ccc(N3CCN(C(=O)CCOCCNc4cccc5c4C(=O)N(C4CCC(=O)NC4=O)C5=O)CC3)cc2)nc1Nc1cccc(S(=O)(=O)NC(C)(C)C)c1` (stereo not shown) [JA-017, N-(tert-Butyl)-3-((2-((4-(4-(3-(2-((2-(2,6-dioxopiperidin-3-yl)-1,3-dioxoisoindolin-4-yl)amino)ethoxy)propanoyl)piperazin-1-yl)phenyl)amino)-5-methylpyrimidin-4-yl)amino)benzenesulfonamide] cannot be ordered by pIC50: less than 5.00 for the first, less than 5.00 for the second.

First: Cc1ncsc1-c1ccc(CNC(=O)[C@@H]2C[C@@H](O)CN2C(=O)[C@@H](NC(=O)COCC(=O)N2CCN(c3ccc(Nc4nc5cccc(-c6ccc(S(C)(=O)=O)cc6)n5n4)cc3)CC2)C(C)(C)C)cc1 [JA-072, (2S,4R)-1-((S)-3,3-Dimethyl-2-(2-(2-(4-(4-((5-(4-(methylsulfonyl)phenyl)-[1,2,4]triazolo[1,5-a]pyridin-2-yl)amino)phenyl)piperazin-1-yl)-2-oxoethoxy)acetamido)butanoyl)-4-hydroxy-N-(4-(4-methylthiazol-5-yl)benzyl)pyrrolidine-2-carboxamide]
Second: Cc1cnc(Nc2ccc(N3CCN(C(=O)CCOCCOCCOCCOCCOCCC(=O)N[C@H](C(=O)N4C[C@H](O)C[C@H]4C(=O)NCc4ccc(-c5scnc5C)cc4)C(C)(C)C)CC3)cc2)nc1Nc1cccc(S(=O)(=O)NC(C)(C)C)c1 [JA-037, (2S,4R)-1-((S)-2-(tert-Butyl)-22-(4-(4-((4-((3-(N-(tert-butyl)sulfamoyl)phenyl)amino)-5-methylpyrimidin-2-yl)amino)phenyl)piperazin-1-yl)-4,22-dioxo-7,10,13,16,19-pentaoxa-3-azadocosanoyl)-4-hydroxy-N-(4-(4-methylthiazol-5-yl)benzyl)pyrrolidine-2-carboxamide]
The pIC50 of the first is higher: 5.19 for the first, less than 5.00 for the second. The first is the more potent here.

Compared with `O=C1CCC(N2C(=O)c3cccc(NCCOCCOCCC(=O)N4CCC(n5cc(-c6cnc7cccc(-c8cc(F)c(CN9CCOCC9)c(F)c8)c7n6)cn5)CC4)c3C2=O)C(=O)N1` (stereo not shown) [JA-039, 4-[2-[2-[3-[4-[4-[8-[3,5-Difluoro-4-(morpholinomethyl)phenyl]quinoxalin-2-yl]pyrazol-1-yl]-1-piperidyl]-3-oxo-propoxy]ethoxy]ethylamino]-2-(2,6-dioxo-3-piperidyl)isoindoline-1,3-dione], `O=C1CCC(N2C(=O)c3cccc(NCCOCCOCCOCCOCCC(=O)N4CCC(n5cc(-c6cnc7cccc(-c8cc(F)c(CN9CCOCC9)c(F)c8)c7n6)cn5)CC4)c3C2=O)C(=O)N1` (stereo not shown) [JA-047, 4-[2-[2-[2-[2-[3-[4-[4-[8-[3,5-Difluoro-4-(morpholinomethyl)phenyl]quinoxalin-2-yl]pyrazol-1-yl]-1-piperidyl]-3-oxo-propoxy]ethoxy]ethoxy]ethoxy]ethylamino]-2-(2,6-dioxo-3-piperidyl)isoindoline-1,3-dione] is higher in pIC50: less than 5.00 for the first, 5.46 for the second.

Going from `CS(=O)(=O)c1ccc(-c2cccc3nc(Nc4ccc(N5CCN(CC(=O)NCCCCCCCCNc6cccc7c6C(=O)N(C6CCC(=O)NC6=O)C7=O)CC5)cc4)nn23)cc1` (stereo not shown) [JA-118, N-(8-((2-(2,6-Dioxopiperidin-3-yl)-1,3-dioxoisoindolin-4-yl)amino)octyl)-2-(4-(4-((5-(4-(methylsulfonyl)phenyl)-[1,2,4]triazolo[1,5-a]pyridin-2-yl)amino)phenyl)piperazin-1-yl)acetamide] to `CS(=O)(=O)c1ccc(-c2cccc3nc(Nc4ccc(N5CCN(C(=O)CNc6cccc7c6C(=O)N(C6CCC(=O)NC6=O)C7=O)CC5)cc4)nn23)cc1` (stereo not shown) [JA-014, 2-(2,6-Dioxo-piperidin-3-yl)-4-[2-(4-{4-[5-(4-methanesulfonyl-phenyl)-[1,2,4]triazolo[1,5-a]pyridin-2-ylamino]-phenyl}-piperazin-1-yl)-2-oxo-ethylamino]-isoindole-1,3-dione], the pIC50 rises from less than 5.00 to 5.48. The second is the more potent here.

`Cc1cnc(Nc2ccc(N3CCN(CC(=O)NCCOCCOCCOCCNc4ccc5c(c4)C(=O)N(C4CCC(=O)NC4=O)C5=O)CC3)cc2)nc1Nc1cccc(S(=O)(=O)NC(C)(C)C)c1` (stereo not shown) [JA-239, 2-(4-(4-((4-((3-(N-(tert-butyl)sulfamoyl)phenyl)amino)-5-methylpyrimidin-2-yl)amino)phenyl)piperazin-1-yl)-N-(2-(2-(2-(2-((2-(2,6-dioxopiperidin-3-yl)-1,3-dioxoisoindolin-5-yl)amino)ethoxy)ethoxy)ethoxy)ethyl)acetamide] and `Cc1cnc(Nc2ccc(N3CCN(CC(=O)NCCOCCOCCOCCOCCNc4cccc5c4C(=O)N(C4CCC(=O)NC4=O)C5=O)CC3)cc2)nc1Nc1cccc(S(=O)(=O)NC(C)(C)C)c1` (stereo not shown) [JA-089, 2-(4-(4-((4-((3-(N-(tert-Butyl)sulfamoyl)phenyl)amino)-5-methylpyrimidin-2-yl)amino)phenyl)piperazin-1-yl)-N-(14-((2-(2,6-dioxopiperidin-3-yl)-1,3-dioxoisoindolin-4-yl)amino)-3,6,9,12-tetraoxatetradecyl)acetamide] are within 0.2 log units of each other in pIC50: 6.13 for the first, 6.01 for the second.

Going from `Cn1c(=O)n(C2CCC(=O)NC2=O)c2ccc(NCCCCC(=O)N3CCN(c4ccc(Nc5nc6cccc(-c7ccc(S(C)(=O)=O)cc7)n6n5)cc4)CC3)cc21` (stereo not shown) [JA-291, 3-(3-Methyl-5-((5-(4-(4-((5-(4-(methylsulfonyl)phenyl)-[1,2,4]triazolo[1,5-a]pyridin-2-yl)amino)phenyl)piperazin-1-yl)-5-oxopentyl)amino)-2-oxo-2,3-dihydro-1H-benzo[d]imidazol-1-yl)piperidine-2,6-dione] to `Cc1cnc(Nc2ccc(N3CCN(CC(=O)NCCCCCCNc4cccc5c4C(=O)N(C4CCC(=O)NC4=O)C5=O)CC3)cc2)nc1Nc1cccc(S(=O)(=O)NC(C)(C)C)c1` (stereo not shown) [JA-094, 2-(4-(4-((4-((3-(N-(tert-butyl)sulfamoyl)phenyl)amino)-5-methylpyrimidin-2-yl)amino)phenyl)piperazin-1-yl)-N-(6-((2-(2,6-dioxopiperidin-3-yl)-1,3-dioxoisoindolin-4-yl)amino)hexyl)acetamide], the pIC50 rises from less than 6.30 to 7.13. The second is the more potent here.
